Consider 12 molecules from patent US7439363B2, “Substituted indazoly(indoly)maleimide derivatives as kinase inhibitors” (Janssen Parmaceutica N.V., priority 2003, dated 2008).

Format in all cases: biochemical
The target in one assay is PKC isoform β-II (Homo sapiens, UniProt P05771). Kind of assay: Protein Kinase C histone-based assay, PKC beta II. As to conditions: histone III substrate, 30 μM ATP. The procedure:
(§1) Protein Kinase C Histone-Based Assay
(§2) Compounds were evaluated for PKC selectivity using histone III as the substrate. The PKC isoforms α, β-II or γ were added to a reaction mixture that contained 20 mM HEPES, (pH 7.4), 940 μM CaCl2, 10 mM MgCl2, 1 mM EGTA. 100 μg/mL phosphatidylserine, 20 μg/mL diacylglycerol, 30 μM ATP, 1 μCi (^33P)ATP and 200 μg/mL histone III. The reaction was incubated for 10 min at 30° C. Reactions were terminated by TCA precipitation and spotting on Whatman P81 filters. Filters were washed in 75 mM phosphoric acid and the radioactivity quantified by liquid scintillation counting.

In another assay the target is PKC isoform γ (Homo sapiens, UniProt P05129). The experiment in a line: Protein Kinase C histone-based assay, PKC gamma. As to conditions: histone III substrate, 30 μM ATP. The procedure:
as §1, §2

The next assay addresses PKC isoform α (Homo sapiens, UniProt P17252). Kind of assay: Protein Kinase C histone-based assay, PKC alpha. The following applies: histone III substrate, 30 μM ATP. The procedure: as §1, §2
The target of assay [1] is T1, recombinant rabbit GSK-3β protein (Oryctolagus cuniculus, UniProt G1T8E2).
T1 construct: purchased New England Biolabs
The experiment in a line: Glycogen Synthase Kinase-3 assay (PPI-2 phosphorylation). As to conditions: for IC50: PPI-2 substrate, 33P-ATP. The procedure:
Glycogen Synthase Kinase-3 Assay
Compounds were tested for the ability to inhibit recombinant rabbit GSK-3β protein using the following protocol. The test compound was added to a reaction mixture containing Protein phosphatase inhibitor-2 (PPI-2) (Calbiochem) (45 ng), rabbit GSK-3β protein (New England Biolabs) (0.75 units) and ^33P-ATP (1 μCi) in 50 mM Tris-HCl (pH 8.0), 10 mM MgCl2, 0.1% BSA, 1 mM DTT and 100 μM Sodium Vanadate. The mixture was reacted for 90 minutes at 30° C. to allow phosphorylation of the PPI-2 protein and then the protein in the reaction was precipitated using 10% TCA. The precipitated protein was collected on filter plates (MultiScreen-DV/Millipore), which were subsequently washed. Finally, the radioactivity was quantified using a TopCount Scintillation Counter (Packard). […] Staurosporine or Valproate, known inhibitors of GSK-3β, were used as a positive control for screening.

PKC isoform β-II, sequence (P05771 1-673 isoform P05771-2): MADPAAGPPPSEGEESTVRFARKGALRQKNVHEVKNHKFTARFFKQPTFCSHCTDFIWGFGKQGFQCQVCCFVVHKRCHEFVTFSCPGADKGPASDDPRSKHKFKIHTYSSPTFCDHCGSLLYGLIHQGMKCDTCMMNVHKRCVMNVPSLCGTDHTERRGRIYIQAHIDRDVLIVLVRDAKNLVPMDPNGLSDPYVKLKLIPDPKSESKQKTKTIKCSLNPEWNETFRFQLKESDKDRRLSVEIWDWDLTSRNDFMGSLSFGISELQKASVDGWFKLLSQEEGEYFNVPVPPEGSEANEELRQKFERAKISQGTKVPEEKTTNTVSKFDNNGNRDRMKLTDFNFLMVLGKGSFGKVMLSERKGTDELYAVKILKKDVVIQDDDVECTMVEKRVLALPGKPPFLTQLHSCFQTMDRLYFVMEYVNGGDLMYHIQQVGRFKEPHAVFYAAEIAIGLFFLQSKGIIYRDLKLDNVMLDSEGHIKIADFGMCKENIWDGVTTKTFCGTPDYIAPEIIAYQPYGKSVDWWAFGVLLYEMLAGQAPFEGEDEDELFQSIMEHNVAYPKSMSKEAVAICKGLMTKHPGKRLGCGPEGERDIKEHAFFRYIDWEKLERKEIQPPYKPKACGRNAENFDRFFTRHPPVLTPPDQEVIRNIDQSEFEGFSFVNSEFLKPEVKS
T1 sequence (G1T8E2 1-432): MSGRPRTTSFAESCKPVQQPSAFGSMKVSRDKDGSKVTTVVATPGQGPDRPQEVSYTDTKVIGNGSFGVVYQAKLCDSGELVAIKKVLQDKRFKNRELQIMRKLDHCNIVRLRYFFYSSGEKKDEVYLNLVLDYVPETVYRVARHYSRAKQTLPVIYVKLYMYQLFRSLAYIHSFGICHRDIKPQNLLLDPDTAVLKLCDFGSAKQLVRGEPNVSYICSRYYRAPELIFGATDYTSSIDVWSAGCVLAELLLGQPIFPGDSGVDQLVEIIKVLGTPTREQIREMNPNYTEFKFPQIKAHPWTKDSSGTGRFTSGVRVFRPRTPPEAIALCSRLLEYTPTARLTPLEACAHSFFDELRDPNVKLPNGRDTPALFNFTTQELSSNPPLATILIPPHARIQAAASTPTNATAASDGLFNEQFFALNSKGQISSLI

Consider `Cc1nnn(CCCn2nc(C3=C(c4cn(C)c5ccc(Cl)cc45)C(=O)NC3=O)c3ccccc32)n1` [Compound 9], for which the IC50 at PKC isoform β-II was 0.041 µM; at PKC isoform γ it was 1.42 µM; against PKC isoform α, 2.98 µM; in assay [1] it was 0.005 µM.
On the same counts, the results for `Cn1cc(C2=C(c3nn(CCCn4ccnn4)c4ccccc34)C(=O)NC2=O)c2cc(Cl)ccc21` [Compound 2, 3-(5-Chloro-1-methyl-1H-indole-3-yl)-4-[1-(3-[1,2,3]triazole-1-yl-propyl)-1H-indzol-3-yl]-pyrrole-2,5-dione] are 0.046 µM, 0.395 µM, 1.21 µM and 0.003 µM.
Regarding `Cn1cc(C2=C(c3nn(CCCn4ncnn4)c4ccccc34)C(=O)NC2=O)c2cc(Cl)ccc21` [Compound 3, 3-(5-Chloro-1-methyl-1H-indol-3-yl)-4-[1-(3-tetrazol-2-yl-propyl)-1H-indazol-3-yl]pyrrole-2,5-dione], the IC50 at PKC isoform β-II worked out at 0.045 µM; on PKC isoform γ, 1.01 µM; at PKC isoform α it was 2.35 µM; in assay [1], 0.004 µM.
As for `Cn1cc(C2=C(c3nn(CCCn4cnnn4)c4ccccc34)C(=O)NC2=O)c2cc(Cl)ccc21` [Compound 4, 3-(5-Chloro-1-methyl-1H-indol-3-yl)-4-[1-(3-tetrazol-1-yl-propyl)-1H-indazol-3-yl]-pyrrole-2,5-dione], the IC50 on PKC isoform β-II was 0.035 µM; against PKC isoform γ, 0.544 µM; at PKC isoform α it was 0.505 µM; in assay [1] it was 0.004 µM.
For the molecule `O=C1NC(=O)C(c2nn(CCCn3ncnn3)c3ccccc23)=C1c1cn(-c2cccnc2)c2ccccc12` [Compound 7, 3-(1-Pyridin-3-yl-1H-indol-3-yl)-4-[1-(3-tetrazol-2-yl-propyl)-1H-indazole-3-yl]-pyrrole-2,5-dione], the IC50 against PKC isoform β-II stood at 0.044 µM; against PKC isoform γ it was 1.45 µM; at PKC isoform α it was 0.451 µM; in assay [1] it was 0.027 µM.
For the molecule `Cn1cc(C2=C(c3nn(CCc4nnn[nH]4)c4ccccc34)C(=O)NC2=O)c2cc(Cl)ccc21` [Compound 11, 3-(5-Chloro-1-methyl-1H-indol-3-yl)-4-{1-[2-(1H-tetrazol-5-yl)-ethyl]-1H-indazol-3-yl)-pyrrole-2,5-dione], the half-maximal inhibitory concentration (IC50) at PKC isoform β-II came to 0.123 µM; against PKC isoform γ, 1.93 µM; at PKC isoform α it was 1.36 µM; in assay [1], 0.005 µM.
On to `Cn1cc(C2=C(c3nn(CCCn4ccnc4)c4ccccc34)C(=O)NC2=O)c2cc(Cl)ccc21` [Compound 1, 3-(5-Chloro-1-methyl-1H-indol-3-yl)-4-[1-(3-imidazol-1-yl-propyl)-1H-indazol-3-yl]-pyrrole-2,5-dione], for which the IC50 against PKC isoform β-II amounted to 0.015 µM; on PKC isoform γ, 0.476 µM; on PKC isoform α, 0.567 µM; in assay [1], 0.004 µM.
Turning to `O=C1NC(=O)C(c2nn(CCc3nnn[nH]3)c3ccccc23)=C1c1cn(-c2cccnc2)c2ccc(Cl)cc12` [Compound 12], the IC50 against PKC isoform β-II turned out to be 0.069 µM; at PKC isoform γ, 0.226 µM; on PKC isoform α it was 0.554 µM; in assay [1] it was 0.107 µM.
Taken in the same sequence, the figures for `Cc1nnnn1CCCn1nc(C2=C(c3cn(C)c4ccc(Cl)cc34)C(=O)NC2=O)c2ccccc21` [Compound 10] were 0.009 µM, 0.602 µM, 0.424 µM and 0.005 µM.
Regarding `O=C1NC(=O)C(c2nn(CCCn3ncnn3)c3ccccc23)=C1c1cn(-c2ccc3ccccc3c2)c2ccccc12` [Compound 5, 3-(1-Naphthalen-2-yl-1H-indole-3-yl)-4-[1-(3-tetrazol-2-yl-propyl)-1H-indazol-3-yl]-pyrrole-2,5-dione], the IC50 on PKC isoform β-II was found to be 0.025 µM; on PKC isoform γ, 1.7 µM; against PKC isoform α, 0.542 µM; in assay [1], 0.776 µM.
In the case of `O=C1NC(=O)C(c2nn(CCCn3cnnn3)c3ccccc23)=C1c1cn(-c2ccc3ccccc3c2)c2ccccc12` [Compound 6, 3-(1-Naphthalen-2-yl-1H-indol-3-yl)-4-[1-(3-tetrazol-1-yl-propyl)-1H-indazol-3-yl]pyrrole-2,5-dione], the IC50 was determined as 0.022 µM against PKC isoform β-II, 1.11 µM on PKC isoform γ and 0.326 µM against PKC isoform α. For the same molecule, the “GSK-3β Assay Activity, % @ 1 μM” value in assay [1] (@ 1 μM) is 29% @ 1 μM.
Take `O=C1NC(=O)C(c2nn(CCCn3cnnn3)c3ccccc23)=C1c1cn(-c2cccnc2)c2ccccc12` [Compound 8, 3-(1-Pyridin-3-yl-1H-indol-3-yl)-4-[1-(3-tetrazol-1-yl-propyl)-1H-indazol-3-yl]-pyrrole-2,5-dione]: the IC50 turned out to be 0.052 µM against PKC isoform β-II, 4.3 µM against PKC isoform γ, 1.04 µM at PKC isoform α and 0.034 µM in assay [1].

One may read the IC50 as the midpoint of a concentration-inhibition curve.
